{"source": "patent US20130084267A1", "about": "“METHOD FOR STEM CELL DIFFERENTIATION” (THE UNIVERSITY OF QUEENSLAND, priority 2010, published 2013)", "key": {"[1]": {"tested_on": "MR90 cells", "assay": "Flow cytometry analysis of EPCAM expression in SB431542-treated MR90", "type": "cell-based, human", "method": "(a) the isotype Ab control. […] The EPCAM-(CD326-) cell population have been identified as the precursors of the mesodermal cell lineage. These cells can be further differentiated into mesenchymal stem cell lineage, like MSC. The iPSC MR90 cells were cultured in mTeSR and KOSR condition medium with SB431542 for 10 days, and then subcultured into MSC medium to differentiate cells into MSC. […] Analysis was performed by flow cytometry for EPCAM expression in the SB431542-treated MR90 cells after at 10 days in culture."}, "[2]": {"tested_on": "MEL1", "assay": "qRT-PCR gene expression analysis of SB431542-treated MEL1", "type": "cell-based, human", "settings": "MEL1, 10 μM SB431542, 10 days", "procedure": "The pluripotent hESC line, MEL1, was cultured in KOSR medium with 10 μM SB431542 treatment. After 10 days treatment, MEL1 cells were subcultured in MSC medium for differentiating MSC cells. […] SB431542 treated cells and MEL1-MSC P2 were analyzed for gene expression. (a-d) OCT4, SOX2, MYST2 and EPCAM genes associated with iPSC pluripotency. (e-h) NCAM, MSX2, LEFTY1 and BMP4 genes expressed by cell lineages from the mesoderm. (i-j) PAX6 gene is expressed by cell lineages from the ectoderm and CDX2 gene is expressed by cell lineages from the trophectoderm. (k) GATA gene expressed by cell lineages from the endoderm. (l-o) Genes expressed by MSC (positive in CD29, CD73 and negative in the CD117, CD133). Gene expression was normalized to GAPDH. All experiments represent duplicates. […] (A, B) The heat map of mRNA expression level was assayed by qRT-PCR array. ESC/iPSC cells were cultured in KOSR condition medium with 10 μM SB431542. After 10 days treatment, cells were subcultured into MSC medium to differentiate cells into MSC. RNA was extracted from MEL1 and MR90 cells at day 10. […] (C) Relative mRNA transcripts folds change of quantitative RT-PCR analysis in the indicated cell subsets. All the gene expression level was normalized to GAPDH mRNA level and compared to genes level in the mTESR culture condition. […]"}, "[3]": {"tested_on": "MR90", "assay": "qRT-PCR gene expression analysis of SB431542-treated MR90", "type": "cell-based, human", "settings": "MR90, 10 μM SB431542, 10 days", "method": "Pluripotent iPSC, MR90, were cultured in KOSR medium with 10 μM SB431542 treatment for 10 days. After 10 days treatment, MR90 cells were subcultured in the MSC medium for differentiating MSC cells. […] MSC are indicated as MR90-MSC P0 (passage 0). The SB431542 treated cells and MR90-MSC P0 were analyzed for gene expression. (a-d) OCT4, SOX2, MYST2 and EPCAM genes associated with iPSC pluripotency. (e-h) NCAM, MSX2, LEFTY1 and BMP4 genes expressed by cell lineages from the mesoderm. (i-j) PAX6 gene is expressed by cell lineages from the ectoderm and CDX2 gene is expressed by cell lineages from the trophectoderm. (k) GATA gene expressed by cell lineages from the endoderm. (l-o) Genes expressed by MSC (positive in CD29, CD73 and negative in the CD117, CD133). Gene expression was normalized to GAPDH. All experiments represent duplicates.\n(A, B) The heat map of mRNA expression level was assayed by qRT-PCR array. ESC/iPSC cells were cultured in KOSR condition medium with 10 μM SB431542. […] (C) Relative mRNA transcripts folds change of quantitative RT-PCR analysis in the indicated cell subsets. […]\nPluripotent iPSC (MR90) were cultured in mTESR medium and KOSR medium with 10 μM SB431542 for 10 days. […] After 10 days, SB431542-treated cells and MR90-MSC P0 cells were analyzed for gene expression (see FIG. 13). […]"}, "[4]": {"tested_on": "hESC", "assay": "Morphology of hESC cultured in the presence of SB431542", "type": "cell-based, human", "settings": "after 10 days incubation with SB431542", "excerpt": "(A) hESC remain as tightly packed colonies of small cells when cultured in normal growth conditions. […] (B) When these cells are transferred to MSC media, they again change morphology and become fibroblastic. (C) MSC also have a fibroblast-like morphology. (D) hiPSC line ES4CL1 also differentiates though an epithelial-like morphology into MSC-like cells with this SB431542 inhibitor culture method.\nDay −4 to −1: hESC/iPSC were dissociated from mouse embryonic fibroblast (MEF) feeder layer and seeded on either un-coated flasks (i.e., which allow for adherence (attachment) of the pluripotent cells to the surface) or matrigel-coated flasks in mTESR (defined pluripotent stem cell media, Stem Cell Technologies; i.e. serum free, feeder layer free).\nDay 1: when cell colonies were approximately 40% confluent, 10 uM SB431542 inhibitor (Sigma Aldrich) was added in DMEM:F12+20% knock out serum replacement (KOSR, Invitrogen) media.\nDay 2-9: 20% KOSR+SB431542 inhibitor media replaced daily.\nDay 7-10: when 90%+ cells have differentiated from hESC colonies to a monolayer with epithelial-like morphology, cells were passaged using TrypleSelect. Single cells were then seeded at 3×10^4-1.5×10^5 cells/cm^2 in fetal MSC medium (DMEM-HG+10% MSC qualified FBS), then passage when nearly confluent as for MSC."}, "[5]": {"tested_on": "iPSC", "assay": "Immunofluorescence marker analysis of iPSC differentiated in the presence of SB431542", "type": "cell-based, human", "excerpt": "Nuclei were counter-stained with dapi (blue). […] Nuclei were counter-stained with dapi (blue)."}, "[6]": {"tested_on": "ALK-4, -5 and -7", "settings": "Inman et al. 2002; Laping et al. 2002; cited from earlier work"}, "[7]": {"tested_on": "BMP signaling utilizing ALK-1, -2, -3, and -6", "settings": "Inman et al. 2002; Laping et al. 2002; cited from earlier work"}, "[8]": {"tested_on": "SMAD2/3 phosphorylation", "settings": "Xu et al. 2008; cited from earlier work"}, "[9]": {"settings": "compared with undifferentiated cells in mTeSR medium"}}}
{"molecule": "NC(=O)c1ccc(-c2nc(-c3ccc4c(c3)OCO4)c(-c3ccccn3)[nH]2)cc1", "note": "[SB431542, 4-[4-(1,3-benzodioxol-5-yl)-5-(2-pyridinyl)-1H-imidazol-2-yl]-benzamide]", "values": [{"measurement": "population of EPCAM+ MR90 cell", "setting": "[1]; KOSR medium with SB431542, 10 days, decreased from 22.84%", "value": 5.94, "unit": "%"}, {"measurement": "population of EPCAM+ MR90 cell", "setting": "[1]; MTESR medium with SB431542, 10 days, decreased from 45%", "value": 8.14, "unit": "%"}, {"measurement": "differentiation into germ layer lineages (lineage gene expression)", "setting": "[2]", "value": "enhanced MEL1 differentiation into mesoderm (MSX1, MSX2, SOX9, NCAM1, BMP4), ectoderm (PAX6), trophectoderm (CDX2), endoderm (GATA4) and MSC cells (CD73, CD29)"}, {"measurement": "relative mRNA levels of pluripotent genes (Pou5F (Oct4), SOX2, MYST2)", "setting": "[2]; [9]", "value": "decreased"}, {"measurement": "differentiation into germ layer lineages (lineage gene expression)", "setting": "[3]", "value": "induced MR90 differentiate into mesoderm (MSX1, MSX2, NCAM1, BMP4), ectoderm (PAX6) and trophectoderm (CDX2)"}, {"measurement": "relative mRNA levels of pluripotent genes (Pou5F (Oct4), SOX2, MYST2)", "setting": "[3]; [9]", "value": "decreased"}, {"measurement": "cell morphology", "setting": "[4]", "value": "differentiated into an epithelial-like monolayer"}, {"measurement": "expression of pluripotency markers (Oct4, Nanog, Stella, SSEA3, Tra 1-60 and Tra 1-81)", "setting": "[5]", "value": "decreased expression"}, {"measurement": "inhibition of ALK-4, -5 and -7", "setting": "[6]", "value": "selective and potent inhibitor"}, {"measurement": "effect on BMP signaling utilizing ALK-1, -2, -3, and -6", "setting": "[7]", "value": "without affecting"}, {"measurement": "effect on SMAD2/3 phosphorylation and NANOG promoter activity in hESC", "setting": "[8]", "value": "inhibiting SMAD2/3 phosphorylation and subsequent decrease in NANOG promoter activity"}]}
